The assay concerns MV-4-11 cells. The assay is described as follows: Gene expression microarray analysis (Affymetrix PrimeView) and GSEA. In kind it is cell-based, human. Also on record: RFU PODN (11730768_x_at) / Fold change /veh PODN (11730768_x_at) / RFU LINC00158 (11744669_a_at) / Fold change /veh LINC00158 (11744669_a_at) / RFU DUSP10 (11751237_a_at) / Fold change /veh DUSP10 (11751237_a_at) / RFU ID3 (11757404_x_at) / Fold change /veh ID3 (11757404_x_at) / RFU PLEKHG5 (11737974_s_at) / Fold change /veh PLEKHG5 (11737974_s_at) / RFU LRRC4B (11730491_at) / Fold change /veh LRRC4B (11730491_at) / RFU GIMAP4 (11747438_a_at) / Fold change /veh GIMAP4 (11747438_a_at) / RFU KRT8 (11758183_x_at) / Fold change /veh KRT8 (11758183_x_at) / RFU CNN1 (11734310_a_at) / Fold change /veh CNN1 (11734310_a_at) / RFU VPS37D (11726825_at) / Fold change /veh VPS37D (11726825_at) / RFU C10orf10 (11716522_x_at) / Fold change /veh C10orf10 (11716522_x_at) / RFU KIR2DL2 /// KIR2DL4 /// KIR2DL5A /// KIR2DL5B /// KIR2DS1 /// KIR2DS2 /// KIR2DS3 /// KIR2DS4 /// KIR3DL3 /// KIR3DL3 /// KIR3DS1 (11738374_at) / Fold change /veh KIR2DL2 /// KIR2DL4 /// KIR2DL5A /// KIR2DL5B /// KIR2DS1 /// KIR2DS2 /// KIR2DS3 /// KIR2DS4 /// KIR3DL3 /// KIR3DL3 /// KIR3DS1 (11738374_at) / RFU C1QL1 (11718748_at) / Fold change /veh C1QL1 (11718748_at) / RFU TMPRSS4 (11747572_a_at) / Fold change /veh TMPRSS4 (11747572_a_at) / RFU HAMP (11756126_x_at) / Fold change /veh HAMP (11756126_x_at) / RFU RNFT2 (11725882_a_at) / Fold change /veh RNFT2 (11725882_a_at) / RFU NR4A2 (11747474_a_at) / Fold change /veh NR4A2 (11747474_a_at) / RFU ABCC12 (11746883_a_at) / Fold change /veh ABCC12 (11746883_a_at) / RFU TMEM136 (11760407_x_at) / Fold change /veh TMEM136 (11760407_x_at) / RFU CLDN22 /// WWC2 (11732394_at) / Fold change /veh CLDN22 /// WWC2 (11732394_at) / RFU HLA-DPB1 (11760878_x_at) / Fold change /veh HLA-DPB1 (11760878_x_at) / RFU SPINT1 (11716480_a_at) / Fold change /veh SPINT1 (11716480_a_at) / RFU GAP43 (11754022_s_at) / Fold change /veh GAP43 (11754022_s_at) / RFU A4GNT (11735810_at) / Fold change /veh A4GNT (11735810_at) / RFU PRB3 (11715151_x_at) / Fold change /veh PRB3 (11715151_x_at) / RFU TUBB4B (11761932_at) / Fold change /veh TUBB4B (11761932_at) / RFU CAPN14 (11732068_a_at) / Fold change /veh CAPN14 (11732068_a_at) / RFU TMCC2 (11721928_a_at) / Fold change /veh TMCC2 (11721928_a_at) / RFU IRGQ (11745062_a_at) / Fold change /veh IRGQ (11745062_a_at) / RFU FAM174B (11720279_a_at) / Fold change /veh FAM174B (11720279_a_at) / RFU TMPRSS4 (11748680_a_at) / Fold change /veh TMPRSS4 (11748680_a_at) / RFU FAM212B (11763350_a_at) / Fold change /veh FAM212B (11763350_a_at) / RFU PLEKHG5 (11743358_a_at) / Fold change /veh PLEKHG5 (11743358_a_at) / RFU ZSCAN30 (11745921_a_at) / Fold change /veh ZSCAN30 (11745921_a_at) / RFU CMKLR1 (11741424_a_at) / Fold change /veh CMKLR1 (11741424_a_at) / RFU LOC101060620 /// MAPK8IP1 (11723275_at) / Fold change /veh LOC101060620 /// MAPK8IP1 (11723275_at) / RFU SPTSSB (11747773_x_at) / Fold change /veh SPTSSB (11747773_x_at) / RFU PRSS12 (11739890_at) / Fold change /veh PRSS12 (11739890_at) / RFU BIN1 (11741810_x_at) / Fold change /veh BIN1 (11741810_x_at) / RFU WNT11 (11732464_a_at) / Fold change /veh WNT11 (11732464_a_at) / RFU C10orf10 (11716521_a_at) / Fold change /veh C10orf10 (11716521_a_at) / RFU C5orf56 (11738089_at) / Fold change /veh C5orf56 (11738089_at) / RFU CYB561 (11721691_x_at) / Fold change /veh CYB561 (11721691_x_at) / RFU ANKRD19P (11752326_a_at) / Fold change /veh ANKRD19P (11752326_a_at) / RFU OR2T12 /// OR2T33 /// OR2T8 (11738714_s_at) / Fold change /veh OR2T12 /// OR2T33 /// OR2T8 (11738714_s_at) / RFU VCAN (11748164_a_at) / Fold change /veh VCAN (11748164_a_at) / RFU JSRP1 (11732532_at) / Fold change /veh JSRP1 (11732532_at) / RFU KRTAP10-11 (11738290_x_at) / Fold change /veh KRTAP10-11 (11738290_x_at) / RFU MYO3A (11730013_a_at) / Fold change /veh MYO3A (11730013_a_at) / RFU EBF3 (11725865_a_at) / Fold change /veh EBF3 (11725865_a_at) / RFU CAMK2N1 (11719241_x_at) / Fold change /veh CAMK2N1 (11719241_x_at) / RFU C5orf56 (11738088_a_at) / Fold change /veh C5orf56 (11738088_a_at) / RFU OLFML3 (11715873_a_at) / Fold change /veh OLFML3 (11715873_a_at) / RFU LOC100653217 /// NTM (11731650_a_at) / Fold change /veh LOC100653217 /// NTM (11731650_a_at) / RFU MAPK11 (11762145_a_at) / Fold change /veh MAPK11 (11762145_a_at) / RFU FIZ1 (11724087_x_at) / Fold change /veh FIZ1 (11724087_x_at) / RFU OASL (11726364_x_at) / Fold change /veh OASL (11726364_x_at) / RFU SOX15 (11748057_x_at) / Fold change /veh SOX15 (11748057_x_at) / RFU CD79A (11719716_a_at) / Fold change /veh CD79A (11719716_a_at) / RFU HIST1H1D (11736915_at) / Fold change /veh HIST1H1D (11736915_at) / RFU CASKIN2 (11723855_a_at) / Fold change /veh CASKIN2 (11723855_a_at) / RFU LOC730098 (11760151_x_at) / Fold change /veh LOC730098 (11760151_x_at) / RFU OR4N2 (11742367_at) / Fold change /veh OR4N2 (11742367_at) / RFU PRRT2 (11749266_a_at) / Fold change /veh PRRT2 (11749266_a_at) / RFU SNX32 (11753110_a_at) / Fold change /veh SNX32 (11753110_a_at) / RFU CDHR5 (11726645_a_at) / Fold change /veh CDHR5 (11726645_a_at) / RFU RCAN1 (11760418_a_at) / Fold change /veh RCAN1 (11760418_a_at) / RFU FAM167A (11723789_a_at) / Fold change /veh FAM167A (11723789_a_at) / RFU FAM26E (11764081_at) / Fold change /veh FAM26E (11764081_at) / RFU ISYNA1 (11749810_s_at) / Fold change /veh ISYNA1 (11749810_s_at) / RFU ACY1 (11761880_at) / Fold change /veh ACY1 (11761880_at) / RFU 11764098_at / Fold change /veh 11764098_at / RFU SAMD14 (11745864_x_at) / Fold change /veh SAMD14 (11745864_x_at) / RFU NPB (11741838_a_at) / Fold change /veh NPB (11741838_a_at) / RFU TMPRSS6 (11731388_a_at) / Fold change /veh TMPRSS6 (11731388_a_at) / RFU KRTAP10-2 (11738614_at) / Fold change /veh KRTAP10-2 (11738614_at) / RFU ARHGAP8 /// PRR5-ARHGAP8 (11727945_x_at) / Fold change /veh ARHGAP8 /// PRR5-ARHGAP8 (11727945_x_at) / RFU KRTAP5-7 /// NADSYN1 (11734609_at) / Fold change /veh KRTAP5-7 /// NADSYN1 (11734609_at) / RFU RASL12 (11751679_a_at) / Fold change /veh RASL12 (11751679_a_at) / RFU CDKN2B (11736163_a_at) / Fold change /veh CDKN2B (11736163_a_at) / RFU PRF1 (11729649_at) / Fold change /veh PRF1 (11729649_at) / RFU, ZNF638 /// ZNF638-IT1 / Fold change vs veh, ZNF638 /// ZNF638-IT1 / RFU, PANK3 / Fold change vs veh, PANK3 / RFU, SH3YL1 / Fold change vs veh, SH3YL1 / RFU, ZEB2 / Fold change vs veh, ZEB2 / RFU, NRIP1 / Fold change vs veh, NRIP1 / RFU, PTTG1IP / Fold change vs veh, PTTG1IP / RFU, CAPN2 / Fold change vs veh, CAPN2 / RFU, MED14 / Fold change vs veh, MED14 / RFU, SNORA58 / Fold change vs veh, SNORA58 / RFU, C1orf63 / Fold change vs veh, C1orf63 / RFU, LRRFIP1 / Fold change vs veh, LRRFIP1 / RFU, NDUFAF7 / Fold change vs veh, NDUFAF7 / RFU, SLC12A2 / Fold change vs veh, SLC12A2 / RFU, IBTK / Fold change vs veh, IBTK / RFU, ESF1 / Fold change vs veh, ESF1 / Fold change vs veh, TMEM50B / RFU, TAOK1 / Fold change vs veh, TAOK1 / RFU, ACBD3 / Fold change vs veh, ACBD3 / RFU, TMA16 / Fold change vs veh, TMA16 / RFU, RWDD3 / Fold change vs veh, RWDD3 / RFU, BCAT1 / Fold change vs veh, BCAT1 / RFU, EDEM3 / Fold change vs veh, EDEM3 / RFU, TMEM33 / Fold change vs veh, TMEM33 / RFU, WDR75 / Fold change vs veh, WDR75 / RFU, AHCTF1 / Fold change vs veh, AHCTF1 / RFU, TFRC / Fold change vs veh, TFRC / RFU, ZDHHC17 / Fold change vs veh, ZDHHC17 / RFU, NOM1 / Fold change vs veh, NOM1 / RFU, ARL8B / Fold change vs veh, ARL8B / RFU, ZBTB11 / Fold change vs veh, ZBTB11 / RFU, TAMM41 / Fold change vs veh, TAMM41 / RFU, KIAA1704 /// LOC100996395 / Fold change vs veh, KIAA1704 /// LOC100996395 / RFU, ING1 / Fold change vs veh, ING1 / RFU, TRMT61B / Fold change vs veh, TRMT61B / RFU, FUBP3 / Fold change vs veh, FUBP3 / RFU, TP53 / Fold change vs veh, TP53 / RFU, TNKS2 / Fold change vs veh, TNKS2 / RFU, ZFP14 / Fold change vs veh, ZFP14 / RFU, ACTR2 / Fold change vs veh, ACTR2 / RFU, PPP3R1 / Fold change vs veh, PPP3R1 / RFU, PIK3R1 / Fold change vs veh, PIK3R1 / RFU, HNRNPA1 / Fold change vs veh, HNRNPA1 / RFU, RNF170 / Fold change vs veh, RNF170 / RFU, ZNF28 / Fold change vs veh, ZNF28 / RFU, RNGTT / Fold change vs veh, RNGTT / RFU, OGT / Fold change vs veh, OGT / RFU, BRD1 / Fold change vs veh, BRD1 / RFU, MARS / Fold change vs veh, MARS / RFU, ZNF655 / Fold change vs veh, ZNF655 / RFU, FAHD1 / Fold change vs veh, FAHD1 / RFU, BDP1 / Fold change vs veh, BDP1 / RFU, LRRCC1 / Fold change vs veh, LRRCC1 / RFU, ARID1A / Fold change vs veh, ARID1A / RFU, ZNF146 / Fold change vs veh, ZNF146 / RFU, ZNF330 / Fold change vs veh, ZNF330 / RFU, GPN3 / Fold change vs veh, GPN3 / RFU, C9orf123 / Fold change vs veh, C9orf123 / RFU, N4BP2L2 / Fold change vs veh, N4BP2L2 / RFU, ARFIP1 / Fold change vs veh, ARFIP1 / RFU, FAM179B / Fold change vs veh, FAM179B / RFU, BCL10 / Fold change vs veh, BCL10 / RFU, UHRF1BP1L / Fold change vs veh, UHRF1BP1L / RFU, BET1 / Fold change vs veh, BET1 / RFU, CNOT2 / Fold change vs veh, CNOT2 / RFU, ZNF268 / Fold change vs veh, ZNF268 / Fold change vs veh, ZNF507 / RFU, DGCR2 / Fold change vs veh, DGCR2 / RFU, WDSUB1 / Fold change vs veh, WDSUB1 / Fold change vs veh, HSP90B1 /// MIR3652 / RFU, ADSS / Fold change vs veh, ADSS / RFU, GK / Fold change vs veh, GK / RFU, ZNF148 / Fold change vs veh, ZNF148 / RFU, TAF9 / Fold change vs veh, TAF9 / RFU, SLC1A5 / Fold change vs veh, SLC1A5 / RFU, SLMO2 / Fold change vs veh, SLMO2 / RFU, ABCC4 / Fold change vs veh, ABCC4 / RFU, LOC101060439 /// RAP1B / Fold change vs veh, LOC101060439 /// RAP1B / RFU, RFX7 / Fold change vs veh, RFX7 / RFU, GTPBP10 / Fold change vs veh, GTPBP10 / RFU, CNEP1R1 / Fold change vs veh, CNEP1R1 / RFU, BIVM-ERCC5 /// ERCC5 / Fold change vs veh, BIVM-ERCC5 /// ERCC5 / RFU, ILF3 / Fold change vs veh, ILF3 / RFU 11762660_at / Fold change /veh 11762660_at / RFU VCAN (11757783_s_at) / Fold change /veh VCAN (11757783_s_at) / RFU DDX43 (11728927_at) / Fold change /veh DDX43 (11728927_at) / RFU KRT8 (11758188_x_at) / Fold change /veh KRT8 (11758188_x_at) / RFU NKD1 (11759106_at) / Fold change /veh NKD1 (11759106_at) / RFU SRD5A1 (11742802_a_at) / Fold change /veh SRD5A1 (11742802_a_at) / RFU TPSAB1 /// TPSB2 (11721975_s_at) / Fold change /veh TPSAB1 /// TPSB2 (11721975_s_at) / RFU GSTM3 (11746129_a_at) / Fold change /veh GSTM3 (11746129_a_at) / RFU IL23R (11737362_x_at) / Fold change /veh IL23R (11737362_x_at) / RFU TMEM51 (11727254_a_at) / Fold change /veh TMEM51 (11727254_a_at) / RFU PIWIL2 (11732686_x_at) / Fold change /veh PIWIL2 (11732686_x_at) / RFU ORM1 (11744905_x_at) / Fold change /veh ORM1 (11744905_x_at) / RFU CCDC152 (11743942_at) / Fold change /veh CCDC152 (11743942_at) / RFU ECM1 (11717891_a_at) / Fold change /veh ECM1 (11717891_a_at) / RFU IL23R (11748794_a_at) / Fold change /veh IL23R (11748794_a_at) / RFU TNFAIP8L3 (11732012_x_at) / Fold change /veh TNFAIP8L3 (11732012_x_at) / RFU MBOAT4 (11741988_at) / Fold change /veh MBOAT4 (11741988_at) / RFU 11764193_at / Fold change /veh 11764193_at / RFU TMEM53 (11763286_at) / Fold change /veh TMEM53 (11763286_at) / RFU MAGEB2 (11727129_at) / Fold change /veh MAGEB2 (11727129_at) / RFU TMEM200A (11744735_a_at) / Fold change /veh TMEM200A (11744735_a_at) / RFU CCDC152 (11751479_a_at) / Fold change /veh CCDC152 (11751479_a_at) / RFU FAM211A (11726209_a_at) / Fold change /veh FAM211A (11726209_a_at) / RFU RGS16 (11746705_a_at) / Fold change /veh RGS16 (11746705_a_at) / RFU VCAN (11755009_s_at) / Fold change /veh VCAN (11755009_s_at) / RFU RHOB (11743442_s_at) / Fold change /veh RHOB (11743442_s_at) / RFU RGS16 (11720943_a_at) / Fold change /veh RGS16 (11720943_a_at) / RFU RGS16 (11720944_at) / Fold change /veh RGS16 (11720944_at) / RFU, VPS4B / Fold change vs veh, VPS4B / RFU, CREB1 / Fold change vs veh, CREB1 / RFU, DNAJC13 / Fold change vs veh, DNAJC13 / RFU, GNAQ / Fold change vs veh, GNAQ / RFU, CDK5R1 / Fold change vs veh, CDK5R1 / RFU, ZRANB3 / Fold change vs veh, ZRANB3 / RFU, CUL4A / Fold change vs veh, CUL4A / RFU, CCNY / Fold change vs veh, CCNY / RFU, UFL1 / Fold change vs veh, UFL1 / RFU, COG3 / Fold change vs veh, COG3 / RFU, DIAPH2 / Fold change vs veh, DIAPH2 / RFU, SKA2 / Fold change vs veh, SKA2 / RFU, AFF3 / Fold change vs veh, AFF3 / RFU, LMF1 / Fold change vs veh, LMF1 / RFU, IPO11 / Fold change vs veh, IPO11 / RFU, DFFB / Fold change vs veh, DFFB / RFU, FOXP1 / Fold change vs veh, FOXP1 / RFU, CARD8 / Fold change vs veh, CARD8 / RFU, STRN3 / Fold change vs veh, STRN3 / RFU, ADK / Fold change vs veh, ADK / RFU, RASSF2 / Fold change vs veh, RASSF2 / RFU, WIPF1 / Fold change vs veh, WIPF1 / RFU, LARP1B / Fold change vs veh, LARP1B / RFU, RASA1 / Fold change vs veh, RASA1 / RFU, RB1 / Fold change vs veh, RB1 / RFU, PPFIA1 / Fold change vs veh, PPFIA1 / RFU, MAT2A / Fold change vs veh, MAT2A / RFU, CCT5 / Fold change vs veh, CCT5 / RFU, WDR92 / Fold change vs veh, WDR92 / RFU, CUX1 / Fold change vs veh, CUX1 / RFU, TTC7A / Fold change vs veh, TTC7A / RFU, TMEM135 / Fold change vs veh, TMEM135 / RFU, DEPTOR / Fold change vs veh, DEPTOR / RFU, CPM / Fold change vs veh, CPM / RFU, DNAJB6 / Fold change vs veh, DNAJB6 / RFU, CACNA2D3 / Fold change vs veh, CACNA2D3 / RFU, DTX4 / Fold change vs veh, DTX4 / RFU, TFCP2 / Fold change vs veh, TFCP2 / RFU, GMCL1 /// GMCL1P1 / Fold change vs veh, GMCL1 /// GMCL1P1 / RFU, AEBP2 / Fold change vs veh, AEBP2 / RFU, SNHG1 /// SNORD22 /// SNORD25 /// SNORD26 /// SNORD27 /// SNORD28 /// SNORD29 /// SNORD31 / Fold change vs veh, SNHG1 /// SNORD22 /// SNORD25 /// SNORD26 /// SNORD27 /// SNORD28 /// SNORD29 /// SNORD31 / Fold change (Aza/veh), C12orf56 (ProbeSet 11735607_a_at) / Fold change (ACY-1035/veh), C12orf56 (ProbeSet 11735607_a_at) / Fold change (Aza/veh), FGFR1OP (ProbeSet 11751329_s_at) / Fold change (ACY-1035/veh), FGFR1OP (ProbeSet 11751329_s_at) / Fold change (Aza/veh), VPS36 (ProbeSet 11739960_a_at) / Fold change (ACY-1035/veh), VPS36 (ProbeSet 11739960_a_at) / RFU SYPL1 (11715823_x_at) / Fold change /veh SYPL1 (11715823_x_at) / RFU IGFBP7 (11715501_s_at) / Fold change /veh IGFBP7 (11715501_s_at) / RFU REEP3 (11722064_at) / Fold change /veh REEP3 (11722064_at) / RFU IGLL1 (11728026_x_at) / Fold change /veh IGLL1 (11728026_x_at): dose or concentration left out as unconfirmed. The settings on record: MV-4-11 cells, 48 hours.

Experimental findings from article PMC5218480 (PLoS ONE, 2017) are described below.

For `Nc1ncn([C@@H]2O[C@H](CO)[C@@H](O)[C@H]2O)c(=O)n1` [azacitidine], the “Fold change /veh HLA-DPB1 (11760878_x_at)” value stood at 0.86.
